Test results reported in patent publication US20120264735A1 (priority 2009, published 2012).
Counter-ions that a name gives are not always drawn.

Biological target: T1, c-Met kinase (recombinant c-Met) (Homo sapiens, UniProt P08581)
T1 construct: 0.27 nM recombinant c-Met
Experiment: In vitro kinase assay I (homogeneous time-resolved fluorescence tyrosine kinase assay)
Format: biochemical
Procedure, shortened: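 Biotinylated peptide (0.5 μM) phosphorylated by 0.2 nM recombinant c-Met with 50 μM MgATP, 60 min at room temperature, pH 7.4, 5% DMSO. EDTA stop; HTRF read with Eu-anti-phosphotyrosine antibody and streptavidin-APC. IC50 from 4-parameter logistic fit.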

T1 sequence (P08581 25-1390): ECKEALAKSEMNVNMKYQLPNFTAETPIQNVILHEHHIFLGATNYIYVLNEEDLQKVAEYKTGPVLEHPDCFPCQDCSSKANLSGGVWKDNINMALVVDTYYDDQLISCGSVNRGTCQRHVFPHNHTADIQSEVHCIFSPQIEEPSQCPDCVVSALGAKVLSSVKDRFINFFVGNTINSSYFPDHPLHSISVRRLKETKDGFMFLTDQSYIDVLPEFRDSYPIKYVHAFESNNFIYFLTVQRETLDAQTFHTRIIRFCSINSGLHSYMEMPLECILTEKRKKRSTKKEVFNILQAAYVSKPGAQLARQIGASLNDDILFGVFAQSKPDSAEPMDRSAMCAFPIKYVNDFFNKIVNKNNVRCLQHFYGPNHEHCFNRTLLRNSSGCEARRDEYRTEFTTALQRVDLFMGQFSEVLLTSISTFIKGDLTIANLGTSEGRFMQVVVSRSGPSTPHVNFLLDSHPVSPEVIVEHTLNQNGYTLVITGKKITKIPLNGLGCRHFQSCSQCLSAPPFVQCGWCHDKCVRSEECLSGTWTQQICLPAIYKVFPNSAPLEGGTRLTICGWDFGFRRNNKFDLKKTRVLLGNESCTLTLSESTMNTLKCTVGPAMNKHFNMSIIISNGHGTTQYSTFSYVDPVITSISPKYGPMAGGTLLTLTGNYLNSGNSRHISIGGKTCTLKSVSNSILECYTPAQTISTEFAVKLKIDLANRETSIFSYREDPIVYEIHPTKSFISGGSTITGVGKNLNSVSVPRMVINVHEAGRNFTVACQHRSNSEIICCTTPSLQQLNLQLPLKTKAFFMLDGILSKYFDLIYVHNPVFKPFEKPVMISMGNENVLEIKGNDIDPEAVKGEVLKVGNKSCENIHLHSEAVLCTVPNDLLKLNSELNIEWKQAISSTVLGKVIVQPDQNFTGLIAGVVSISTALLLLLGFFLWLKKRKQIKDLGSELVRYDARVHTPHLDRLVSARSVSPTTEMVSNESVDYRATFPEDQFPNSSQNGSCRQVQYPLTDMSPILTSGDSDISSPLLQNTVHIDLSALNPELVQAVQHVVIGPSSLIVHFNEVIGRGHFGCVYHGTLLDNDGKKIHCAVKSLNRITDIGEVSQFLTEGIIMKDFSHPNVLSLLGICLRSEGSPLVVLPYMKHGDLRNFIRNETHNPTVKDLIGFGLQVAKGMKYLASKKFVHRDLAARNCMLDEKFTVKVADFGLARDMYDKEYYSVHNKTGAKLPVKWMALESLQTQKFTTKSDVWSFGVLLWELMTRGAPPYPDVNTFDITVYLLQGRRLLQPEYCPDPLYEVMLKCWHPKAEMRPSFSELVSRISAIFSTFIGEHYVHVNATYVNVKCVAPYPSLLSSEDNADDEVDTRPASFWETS

SMILES	IC50 [nM]
COC(=O)CCCn1cc(-n2ccc(=O)c(Cc3cccc(NC(=O)OCC(C)C)c3)n2)cn1 [Example 179, methyl 4-{4-[3-(3-{[(2-methylpropoxy)carbonyl]amino}benzyl)-4-oxopyridazin-1(4H)-yl]-1H-pyrazol-1-yl}butanoate]	< 100
CC(C)COC(=O)Nc1cccc(Cc2nn(-c3cnn(CCCC(=O)O)c3)ccc2=O)c1 [Example 180, 4-{4-[3-(3-{[(2-methylpropoxy)carbonyl]amino}benzyl)-4-oxopyridazin-1(4H)-yl]-1H-pyrazol-1-yl}butanoic acid]	< 100
CC(C)COC(=O)Nc1cccc(Cc2nn(-c3cnn(CC(=O)O)c3)ccc2=O)c1 [Example 181, {4-[3-(3-{[(2-methylpropoxy)carbonyl]amino}benzyl)-4-oxopyridazin-1(4H)-yl]-1H-pyrazol-1-yl}acetic acid]	< 100
CC(C)COC(=O)Nc1cccc(Cc2nn(-c3cnn(CCC(=O)O)c3)ccc2=O)c1 [Example 182, 3-{4-[3-(3-{[(2-methylpropoxy)carbonyl]amino}benzyl)-4-oxopyridazin-1(4H)-yl]-1H-pyrazol-1-yl}propanoic acid]	< 100
Cn1cc(-n2ccc(=O)c(Cc3cccc(-c4ncc(N)cn4)c3)n2)cn1 [Example 183, 3-[3-(5-Aminopyrimidin-2-yl)benzyl]-1-(1-methyl-1H-pyrazol-4-yl)pyridazin-4(1H)-one]	< 100
Cn1cc(-n2ccc(=O)c(Cc3ccc4[nH]ncc4c3)n2)cn1 [Example 184, 3-(1H-Indazol-5-ylmethyl)-1-(1-methyl-1H-pyrazol-4-yl)pyridazin-4(1H)-one]	100 to 1000
CCCc1nc(-c2cccc(Cc3nn(-c4cnn(C)c4)ccc3=O)c2)n[nH]1 [Example 185, 1-(1-Methyl-1H-pyrazol-4-yl)-3-[3-(5-propyl-1H-1,2,4-triazol-3-yl)benzyl]pyridazin-4(1H)-one]	100 to 1000
Cn1cc(-n2ccc(=O)c(Cc3cccc(-c4nc[nH]n4)c3)n2)cn1 [Example 186, 1-(1-Methyl-1H-pyrazol-4-yl)-3-[3-(1H-1,2,4-triazol-3-yl)benzyl]pyridazin-4(1H)-one hydrochloride]	< 100
Cn1cc(-n2ccc(=O)c(Cc3cccc(-c4ncc(O)cn4)c3)n2)cn1 [Example 187, 3-[3-(5-Hydroxypyrimidin-2-yl)benzyl]-1-(1-methyl-1H-pyrazol-4-yl)pyridazin-4(1H)-one]	100 to 1000
O=c1ccn(-c2ccc(F)c(F)c2)nc1Cc1cccc(-c2ncc(O)cn2)c1 [Example 188, 1-(3,4-Difluorophenyl)-3-[3-(5-hydroxypyrimidin-2-yl)benzyl]pyridazin-4(1H)-one]	100 to 1000
Cn1cc(-n2ccc(=O)c(Cc3cccc(-c4ncc(CO)cn4)c3)n2)cn1 [Example 190, 3-{3-[5-(Hydroxymethyl)pyrimidin-2-yl]benzyl}-1-(1-methyl-1H-pyrazol-4-yl)pyridazin-4(1H)-one]	< 100
CCn1cnc(-c2cccc(Cc3nn(-c4cnn(CCO)c4)ccc3=O)c2)n1 [Example 191, 3-[3-(1-Ethyl-1H-1,2,4-triazol-3-yl)benzyl]-1-[1-(2-hydroxyethyl)-1H-pyrazol-4-yl]pyridazin-4(1H)-one]	< 100
CCOc1cnc(-c2cccc(Cc3nn(-c4cnn(CCO)c4)ccc3=O)c2)nc1 [Example 193, 3-[3-(5-ethoxypyrimidin-2-yl)benzyl]-1-[1-(2-hydroxyethyl)-1H-pyrazol-4-yl]pyridazin-4(1H)-one]	< 100
O=c1ccn(-c2cn[nH]c2)nc1Cc1cccc(-c2ncc(O)cn2)c1 [Example 194, 3-[3-(5-Hydroxypyrimidin-2-yl)benzyl]-1-(1H-pyrazol-4-yl)pyridazin-4(1H)-one]	100 to 1000
CCOc1cnc(-c2cccc(Cc3nn(-c4cn[nH]c4)ccc3=O)c2)nc1 [Example 195, 3-[3-(5-Ethoxypyrimidin-2-yl)benzyl]-1-(1H-pyrazol-4-yl)pyridazin-4(1H)-one]	< 100
